Experimental data: ChEMBL document CHEMBL1151947, “Synthesis, potency, and in vivo evaluation of 2-piperazin-1-ylquinoline analogues as dual serotonin reuptake inhibitors and serotonin 5-HT1A receptor antagonists” (J Med Chem, 2009)

Experiments:
[1] = Elimination half life in rat at 3 mg/kg, po; assay type: ADME, organism-based; set-up: dose 3 mg/kg, route oral; settings: in vivo, read-out: beta t1/2 (converted)
Rattus norvegicus [2] = experiment: Antidepressant activity in po dosed rat assessed as increase in extracellular 5HT level in dorsal lateral frontal cortex after 3 hrs by microdialysis assay; assay type: functional, organism-based
[3] = Elimination half life in rat at 10 mg/kg, po; assay type: ADME, organism-based; set-up: dose 10 mg/kg, route oral; settings: in vivo, read-out: beta t1/2 (converted)
Rattus norvegicus [4] = experiment: Antidepressant activity in rat assessed as increase in extracellular 5HT level in dorsal lateral frontal cortex at 30 mg/kg, po after 3 hrs by microdialysis assay relative to basal level; assay type: functional
[5] = biological target: T1, Adrenergic receptor alpha-1 (Rattus norvegicus, UniProt P15823+P23944+P43140); experiment: Displacement of [3H]prazosin from alpha1 adrenergic receptor in rat cortical membranes; assay type: cell membranes, Membrane
T1 sequence (P15823 whole entry): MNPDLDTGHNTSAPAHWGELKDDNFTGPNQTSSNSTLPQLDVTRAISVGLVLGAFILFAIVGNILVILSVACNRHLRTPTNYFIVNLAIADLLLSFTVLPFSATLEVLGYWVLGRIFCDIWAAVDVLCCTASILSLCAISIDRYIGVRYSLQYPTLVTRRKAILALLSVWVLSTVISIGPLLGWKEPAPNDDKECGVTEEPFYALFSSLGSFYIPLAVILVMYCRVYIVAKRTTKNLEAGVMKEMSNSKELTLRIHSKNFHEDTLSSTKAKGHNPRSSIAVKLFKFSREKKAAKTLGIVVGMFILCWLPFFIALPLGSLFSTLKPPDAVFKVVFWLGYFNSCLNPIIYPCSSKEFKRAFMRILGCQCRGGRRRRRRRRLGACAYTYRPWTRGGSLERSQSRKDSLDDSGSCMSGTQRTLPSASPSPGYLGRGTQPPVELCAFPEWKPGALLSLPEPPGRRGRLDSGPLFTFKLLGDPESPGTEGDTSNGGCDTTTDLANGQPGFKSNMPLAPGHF
T1 sequence (P23944 whole entry): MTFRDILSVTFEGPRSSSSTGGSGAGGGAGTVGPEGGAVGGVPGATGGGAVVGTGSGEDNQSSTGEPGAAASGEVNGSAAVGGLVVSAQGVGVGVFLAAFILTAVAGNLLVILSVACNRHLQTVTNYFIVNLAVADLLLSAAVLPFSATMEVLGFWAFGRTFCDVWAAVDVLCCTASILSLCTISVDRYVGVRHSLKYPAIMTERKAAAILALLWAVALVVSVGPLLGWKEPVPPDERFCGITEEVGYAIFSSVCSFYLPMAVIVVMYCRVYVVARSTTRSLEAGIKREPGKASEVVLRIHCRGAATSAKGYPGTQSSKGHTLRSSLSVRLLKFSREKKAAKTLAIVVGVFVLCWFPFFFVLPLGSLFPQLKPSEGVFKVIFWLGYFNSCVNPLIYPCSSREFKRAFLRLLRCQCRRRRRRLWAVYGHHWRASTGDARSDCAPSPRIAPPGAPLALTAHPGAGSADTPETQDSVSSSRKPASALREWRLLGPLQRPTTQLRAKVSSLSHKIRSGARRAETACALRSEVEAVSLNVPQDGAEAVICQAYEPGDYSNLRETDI
T1 sequence (P43140 whole entry): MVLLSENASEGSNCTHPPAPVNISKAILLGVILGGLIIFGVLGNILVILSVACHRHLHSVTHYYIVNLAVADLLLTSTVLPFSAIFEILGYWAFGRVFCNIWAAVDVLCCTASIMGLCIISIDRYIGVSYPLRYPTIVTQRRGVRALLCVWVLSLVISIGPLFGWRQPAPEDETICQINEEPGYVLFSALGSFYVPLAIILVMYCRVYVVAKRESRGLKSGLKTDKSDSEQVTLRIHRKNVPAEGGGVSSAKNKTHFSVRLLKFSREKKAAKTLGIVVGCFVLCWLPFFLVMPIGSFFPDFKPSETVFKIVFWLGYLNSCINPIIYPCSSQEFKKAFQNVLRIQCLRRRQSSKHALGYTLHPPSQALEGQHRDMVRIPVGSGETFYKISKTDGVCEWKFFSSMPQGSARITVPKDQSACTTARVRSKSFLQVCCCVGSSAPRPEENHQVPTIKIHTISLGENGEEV

[6] = Cmax in rat at 3 mg/kg, po; assay type: ADME, organism-based; set-up: dose 3 mg/kg, route oral; settings: in vivo

- half-life [1]: 3.8 h
- half-life [3]: 3.8 h
- Ki [5]: 1110 nM
- Cmax [6]: 456 ng/mL
Compound: Cc1ccc2c3c(ccc2n1)OC[C@H](CN1CCN(c2ccc4cc(C#N)ccc4n2)CC1)O3
- Activity (Rattus norvegicus [2]): Dose-dependent effect
- Activity (Rattus norvegicus [4]): 71%
